The values below come from ChEMBL document CHEMBL1649196, “Comparative in vitro susceptibilities of human mycoplasmas and ureaplasmas to a new investigational ketolide, CEM-101” (2009).

≈ marks a conversion by molar mass, not a printed value. A value given as a limit tells only on which side of the number the result lay.

What all share (type): functional
The subject of one assay is Ureaplasma urealyticum. As to the kind of experiment: Antimicrobial activity against Ureaplasma urealyticum isolated from human by two fold serial dilution method.
Assay [1] has as its system Mycoplasmoides pneumoniae. The experiment in a line: Antimicrobial activity against Mycoplasma pneumoniae isolated from human by two fold serial dilution method.
For the next assay, the system named is Mycoplasma fermentans. As to the kind of experiment: Antimicrobial activity against Mycoplasma fermentans isolated from human by two fold serial dilution method. The note with it: Mycoplasmopsis fermentans.
For another assay, the system named is Mycoplasma genitalium. The experiment in a line: Antimicrobial activity against Mycoplasma genitalium isolated from human by two fold serial dilution method. The note with it: Mycoplasmoides genitalium.
A further assay relates to Ureaplasma parvum. The experiment in a line: Antimicrobial activity against Ureaplasma parvum isolated from human by two fold serial dilution method.
The test system of the next assay is Metamycoplasma hominis. As to the kind of experiment: Antimicrobial activity against Mycoplasma hominis isolated from human by two fold serial dilution method.

On to `CC(=O)NC[C@H]1CN(c2ccc(N3CCOCC3)c(F)c2)C(=O)O1` [LINEZOLID], for which the MIC is ≥ 256000 ng/mL with Ureaplasma urealyticum and 4000 ng/mL (≈ 11900 nM) against Mycoplasma genitalium. The MIC90 in the assay on Ureaplasma urealyticum was > 256000 ng/mL; in assay [1], 128000 ng/mL (≈ 379000 nM); in the assay with Mycoplasma fermentans, 4000 ng/mL (≈ 11900 nM); in the assay on Ureaplasma parvum, > 256000 ng/mL; in the assay with Metamycoplasma hominis, 4000 ng/mL (≈ 11900 nM). Also, the MIC50 in assay [1] was 64000 ng/mL (≈ 190000 nM); against Mycoplasma fermentans, 1000 ng/mL (≈ 2960 nM); against Ureaplasma parvum, > 256000 ng/mL; in the assay on Metamycoplasma hominis, 2000 ng/mL (≈ 5930 nM).
As for `C[C@H]1c2cccc(O)c2C(=O)C2=C(O)[C@]3(O)C(=O)C(C(N)=O)=C(O)[C@@H](N(C)C)[C@@H]3[C@@H](O)[C@@H]21.O` [DOXYCYCLINE], the MIC50 turned out to be 1000 ng/mL in the assay on Ureaplasma urealyticum; 125 ng/mL in assay [1]; 125 ng/mL with Mycoplasma fermentans; 8000 ng/mL in the assay on Ureaplasma parvum; 125 ng/mL against Metamycoplasma hominis. The MIC90 in the assay on Ureaplasma urealyticum was 16000 ng/mL; in assay [1], 250 ng/mL; against Mycoplasma fermentans, 500 ng/mL; against Ureaplasma parvum it was 16000 ng/mL; against Metamycoplasma hominis, 8000 ng/mL. Besides, the MIC in the assay with Mycoplasma genitalium is ≤ 8 ng/mL.
In the assay with Mycoplasma fermentans, `CCC[C@@H]1C[C@@H](C(=O)N[C@@H]([C@H]2O[C@H](SC)[C@H](O)[C@@H](O)[C@H]2O)[C@H](C)Cl)N(C)C1` [CLINDAMYCIN] registered an MIC50 of 16 ng/mL (≈ 37.6 nM) and an MIC90 of 31 ng/mL (≈ 72.9 nM). Also, in the assay on Metamycoplasma hominis, the MIC is ≤ 8 ng/mL, the MIC50 was ≤ 8 ng/mL and the MIC90 amounted to 16 ng/mL (≈ 37.6 nM).
Turning to `CC[C@H]1OC(=O)[C@H](C)[C@@H](O[C@H]2C[C@@](C)(OC)[C@@H](O)[C@H](C)O2)[C@H](C)[C@@H](O[C@@H]2O[C@H](C)C[C@H](N(C)C)[C@H]2O)[C@](C)(O)C[C@@H](C)CN(C)[C@H](C)[C@@H](O)[C@]1(C)O` [AZITHROMYCIN], the MIC50 in the assay with Ureaplasma urealyticum turned out to be 2000 ng/mL (≈ 2670 nM); in assay [1], 0.25 ng/mL (≈ 0.334 nM); with Mycoplasma fermentans, 500 ng/mL (≈ 668 nM); against Ureaplasma parvum, 2000 ng/mL (≈ 2670 nM). Moreover, the MIC90 against Ureaplasma urealyticum is 4000 ng/mL (≈ 5340 nM); in assay [1] it was 0.5 ng/mL (≈ 0.668 nM); with Mycoplasma fermentans, 500 ng/mL (≈ 668 nM); in the assay on Ureaplasma parvum, 4000 ng/mL (≈ 5340 nM). The MIC against Mycoplasma genitalium was ≤ 0.032 ng/mL.
For the compound `C[C@H]1COc2c(N3CCN(C)CC3)c(F)cc3c(=O)c(C(=O)O)cn1c23.C[C@H]1COc2c(N3CCN(C)CC3)c(F)cc3c(=O)c(C(=O)O)cn1c23.O` [LEVOFLOXACIN], the minimum inhibitory concentration (MIC) was found to be 500 ng/mL against Ureaplasma urealyticum and 125 ng/mL against Mycoplasma genitalium. Further, the MIC50 was determined as 500 ng/mL against Ureaplasma urealyticum; 500 ng/mL in assay [1]; 31 ng/mL in the assay with Mycoplasma fermentans; 500 ng/mL against Ureaplasma parvum; 250 ng/mL against Metamycoplasma hominis. The MIC90 is 1000 ng/mL in the assay with Ureaplasma urealyticum; 500 ng/mL in assay [1]; 125 ng/mL with Mycoplasma fermentans; 2000 ng/mL against Ureaplasma parvum; 500 ng/mL in the assay on Metamycoplasma hominis.
As for `CC[C@H]1OC(=O)[C@H](C)C(=O)[C@H](C)[C@@H](O[C@@H]2O[C@H](C)C[C@H](N(C)C)[C@H]2O)[C@](C)(OC)C[C@@H](C)C(=O)[C@H](C)[C@H]2N(CCCCn3cnc(-c4cccnc4)c3)C(=O)O[C@]12C` [TELITHROMYCIN], the MIC50 against Ureaplasma urealyticum is 63 ng/mL (≈ 77.6 nM); in assay [1] it was 0.25 ng/mL (≈ 0.308 nM); with Mycoplasma fermentans, ≤ 8 ng/mL; with Ureaplasma parvum, 63 ng/mL (≈ 77.6 nM); against Metamycoplasma hominis, 250 ng/mL (≈ 308 nM). The MIC90 in the assay with Ureaplasma urealyticum stood at 250 ng/mL (≈ 308 nM); in assay [1], 1 ng/mL (≈ 1.23 nM); against Mycoplasma fermentans, 16 ng/mL (≈ 19.7 nM); against Ureaplasma parvum, 125 ng/mL (≈ 154 nM); in the assay with Metamycoplasma hominis it was 500 ng/mL (≈ 616 nM). In addition, the MIC with Mycoplasma genitalium was ≤ 0.03 ng/mL.
Turning to `CC[C@H]1OC(=O)[C@@](C)(F)C(=O)[C@H](C)[C@@H](O[C@@H]2O[C@H](C)C[C@H](N(C)C)[C@H]2O)[C@](C)(OC)C[C@@H](C)C(=O)[C@H](C)[C@H]2N(CCCCn3cc(-c4cccc(N)c4)nn3)C(=O)O[C@]12C` [SOLITHROMYCIN], the MIC50 against Ureaplasma urealyticum was 8 ng/mL (≈ 9.47 nM); in assay [1], 0.032 ng/mL (≈ 0.0379 nM); in the assay on Mycoplasma fermentans it was ≤ 8 ng/mL; in the assay with Ureaplasma parvum, 8 ng/mL (≈ 9.47 nM); against Metamycoplasma hominis, 4 ng/mL (≈ 4.73 nM). The MIC90 was 31 ng/mL (≈ 36.7 nM) against Ureaplasma urealyticum; 0.125 ng/mL (≈ 0.148 nM) in assay [1]; ≤ 8 ng/mL in the assay with Mycoplasma fermentans; 16 ng/mL (≈ 18.9 nM) against Ureaplasma parvum; 8 ng/mL (≈ 9.47 nM) in the assay with Metamycoplasma hominis. The figures for the MIC with Mycoplasma fermentans and with Mycoplasma genitalium were ≤ 8 ng/mL and ≤ 0.032 ng/mL, respectively.

What is called MIC is the least concentration at which growth counts as inhibited. Read a high MIC as a less susceptible organism. For orientation: MIC90 means the lowest concentration that inhibits either 90% of growth or 90% of the strains tested, depending on the study. High values mean weaker potency, low ones greater potency. As a reminder, the MIC50 is an inhibitory concentration at the 50% level, which refers to growth in some studies and to a panel of isolates in others. A low value points to greater potency.
